# Reference: ChEMBL document CHEMBL1770064, “Penicisteroids A and B, antifungal and cytotoxic polyoxygenated steroids from the marine alga-derived endophytic fungus Penicillium chrysogenum QEN-24S” (Bioorg Med Chem Lett, 2011)
# The source made the active and inactive calls. The calls are words filed in the database; no cut-off is given here.
# Legend:
# [1] = system: Alternaria brassicae; assay: Antifungal activity against Alternaria brassicae assessed as diameter of the zone of inhibition at 20 ug/disk by disk diffusion method; format: functional; conditions: for zone of inhibition at 20 µg/disc: read-out: DIZ
# [2] = system: Aspergillus niger; assay: Antifungal activity against Aspergillus niger assessed as diameter of the zone of inhibition at 20 ug/disk by disk diffusion method; format: functional; conditions: for zone of inhibition at 20 µg/disc: read-out: DIZ
# [3] = system: HeLa; assay: Cytotoxicity against human HeLa cells; format: functional, cell-based
# [4] = system: NCI-H460; assay: Cytotoxicity against human NCI-H460 cells; format: functional, cell-based
# [5] = system: SW1990; assay: Cytotoxicity against human SW1990 cells; format: functional, cell-based
SMILES,Activity [1],Activity [2],zone of inhibition at 20 µg/disc [1] [mm],IC50 [3] [mg/L],zone of inhibition at 20 µg/disc [2] [mm],IC50 [4] [mg/L],IC50 [5] [mg/L]
CC(=O)O[C@H]1C[C@H]2[C@H]3[C@H]([C@@H](O)C[C@]2(C)[C@H]1[C@H](C)/C=C/[C@H](C)C(C)C)[C@@]1(C)CC[C@H](O)CC1=C[C@@H]3O,inactive,inactive,–,–,–,–,–
CC(=O)O[C@H]1C[C@H]2[C@@H]3[C@@H](O)[C@@H](O)[C@H]4C[C@@H](O)CC[C@]4(C)[C@H]3[C@@H](O)C[C@]2(C)[C@H]1[C@H](C)/C=C/[C@H](C)C(C)C,–,–,8,15,18,40,31
CC(=O)O[C@H]1C[C@H]2[C@H]3[C@H]([C@@H](O)C[C@]2(C)[C@H]1[C@H](C)/C=C/[C@H](C)C(C)C)[C@@]1(C)CC[C@H](O)C[C@@H]1C(=O)[C@@H]3O [ANICEQUOL],–,Active,6,–,–,–,–
C[C@@H]1[C@H](O)[C@@H](C)/C=C/C=C/C=C/C=C/C=C/C=C/C=C/[C@H](O[C@@H]2O[C@H](C)[C@@H](O)[C@H](N)[C@@H]2O)C[C@@H]2O[C@](O)(C[C@@H](O)C[C@@H](O)[C@H](O)CC[C@@H](O)C[C@@H](O)CC(=O)O[C@H]1C)C[C@H](O)[C@H]2C(=O)O [AMPHOTERICIN B],–,–,16,–,24,–,–
